row,Compound,melting point [°C]
1,"COc1cc(COc2nn(-c3ccccc3)cc2/C=C/c2csc(CO)n2)ccc1OCc1nc(-c2ccc(CC(=O)O)cc2)oc1C [Example 365, (4-{4-[(4-{[(4-{(E)-2-[2-(hydroxymethyl)-1,3-thiazol-4-yl]ethenyl}-1-phenyl-1H-pyrazol-3-yl)oxy]methyl}-2-methoxyphenoxy)methyl]-5-methyl-1,3-oxazol-2-yl}phenyl)acetic acid]",204 to 205
2,"CCOC(=O)Cc1ccc(-c2nc(COc3ccc(COc4nn(-c5ccccc5)cc4/C=C/c4coc(C(C)(C)C)n4)cc3OC)c(C)o2)cc1 [Example 368, ethyl {4-[4-({4-[({4-[(E)-2-(2-tert-butyl-1,3-oxazol-4-yl)ethenyl]-1-phenyl-1H-pyrazol-3-yl}oxy)methyl]-2-methoxyphenoxy}methyl)-5-methyl-1,3-oxazol-2-yl]phenyl}acetate]",126 to 129
3,"CCc1nc(/C=C/c2cn(-c3ccccc3)nc2OCc2ccc(OCc3nc(-c4cccc(C#N)c4)oc3C)c(OC)c2)cs1 [Example 372, 3-[4-({4-[({4-[(E)-2-(2-ethyl-1,3-thiazol-4-yl)ethenyl]-1-phenyl-1H-pyrazol-3-yl}oxy)methyl]-2-methoxyphenoxy}methyl)-5-methyl-1,3-oxazol-2-yl]benzonitrile]",138 to 140
4,"CCc1nc(/C=C/c2cn(-c3ccccc3)nc2OCc2ccc(OCc3nc(-c4cccc(-c5noc(=O)[nH]5)c4)oc3C)c(OC)c2)cs1 [Example 375, 3-{3-[4-({4-[({4-[(E)-2-(2-ethyl-1,3-thiazol-4-yl)ethenyl]-1-phenyl-1H-pyrazol-3-yl}oxy)methyl]-2-methoxyphenoxy}methyl)-5-methyl-1,3-oxazol-2-yl]phenyl}-1,2,4-oxadiazol-5(4H)-one]",139 to 140
5,"CCc1nc(/C=C/c2cn(-c3ccccc3)nc2OCc2ccc(OCc3nc(-c4cccc(C(=O)NS(C)(=O)=O)c4)oc3C)c(OC)c2)cs1 [Example 376, 3-[4-({4-[({4-[(E)-2-(2-ethyl-1,3-thiazol-4-yl)ethenyl]-1-phenyl-1H-pyrazol-3-yl}oxy)methyl]-2-methoxyphenoxy}methyl)-5-methyl-1,3-oxazol-2-yl]-N-(methylsulfonyl)benzamide]",211 to 213
6,"COc1cc(COc2nn(-c3ccccc3)cc2/C=C/c2nc(N3CCN(C(=O)OC(C)(C)C)CC3)sc2C)ccc1OCc1nc(-c2ccc(CC(=O)O)cc2)oc1C [Example 381, [4-(4-{[4-({[4-((E)-2-{2-[4-(tert-butoxycarbonyl)piperazin-1-yl]-5-methyl-1,3-thiazol-4-yl}ethenyl)-1-phenyl-1H-pyrazol-3-yl]oxy}methyl)-2-methoxyphenoxy]methyl}-5-methyl-1,3-oxazol-2-yl)phenyl]acetic acid]",119 to 120
7,"CCc1nc(/C=C/c2cn(-c3ccccc3)nc2OCc2ccc(OCc3nc(-c4cccc(NS(C)(=O)=O)c4)oc3C)c(OC)c2)cs1 [Example 388, N-{3-[4-({4-[({4-[(E)-2-(2-ethyl-1,3-thiazol-4-yl)ethenyl]-1-phenyl-1H-pyrazol-3-yl}oxy)methyl]-2-methoxyphenoxy}methyl)-5-methyl-1,3-oxazol-2-yl]phenyl}methanesulfonamide]",113 to 115

# Next, values leading:
row,melting point [°C],Compound
1,89 to 90,"CCOC(=O)Cc1ccc(-c2nc(COc3ccc(COc4nn(-c5ccccc5)cc4/C=C/c4csc(C(C)C)n4)cc3OC)c(C)o2)cc1 [Example 360, ethyl {4-[4-({4-[({4-[(E)-2-(2-isopropyl-1,3-thiazol-4-yl)ethenyl]-1-phenyl-1H-pyrazol-3-yl}oxy)methyl]-2-methoxyphenoxy}methyl)-5-methyl-1,3-oxazol-2-yl]phenyl}acetate]"
2,126 to 127,"CCOC(=O)Cc1ccc(-c2nc(COc3ccc(COc4nn(-c5ccccc5)cc4/C=C\c4csc(C(C)C)n4)cc3OC)c(C)o2)cc1 [Example 360, ethyl {4-[4-({4-[({4-[(Z)-2-(2-isopropyl-1,3-thiazol-4-yl)ethenyl]-1-phenyl-1H-pyrazol-3-yl}oxy)methyl]-2-methoxyphenoxy}methyl)-5-methyl-1,3-oxazol-2-yl]phenyl}acetate]"
3,155 to 157,"CCOC(=O)Cc1ccc(-c2nc(COc3ccc(COc4nn(-c5ccccc5)cc4/C=C/c4coc(CC)n4)cc3OC)c(C)o2)cc1 [Example 366, ethyl {4-[4-({4-[({4-[(E)-2-(2-ethyl-1,3-oxazol-4-yl)ethenyl]-1-phenyl-1H-pyrazol-3-yl}oxy)methyl]-2-methoxyphenoxy}methyl)-5-methyl-1,3-oxazol-2-yl]phenyl}acetate]"
4,106 to 108,"CCOC(=O)Cc1ccc(-c2nc(COc3ccc(COc4nn(-c5ccccc5)cc4/C=C/c4coc(C(C)C)n4)cc3OC)c(C)o2)cc1 [Example 367, ethyl {4-[4-({4-[({4-[(E)-2-(2-isopropyl-1,3-oxazol-4-yl)ethenyl]-1-phenyl-1H-pyrazol-3-yl}oxy)methyl]-2-methoxyphenoxy}methyl)-5-methyl-1,3-oxazol-2-yl]phenyl}acetate]"
5,127 to 128,"CCOC(=O)Cc1ccc(-c2nc(COc3ccc(COc4nn(-c5ccccc5)cc4/C=C/c4nc(CC)sc4C)cc3OC)c(C)o2)cc1 [Example 378, ethyl {4-[4-({4-[({4-[(E)-2-(2-ethyl-5-methyl-1,3-thiazol-4-yl)ethenyl]-1-phenyl-1H-pyrazol-3-yl}oxy)methyl]-2-methoxyphenoxy}methyl)-5-methyl-1,3-oxazol-2-yl]phenyl}acetate]"
6,112 to 114,"CCOC(=O)Cc1ccc(-c2nc(COc3ccc(COc4nn(-c5ccccc5)cc4/C=C/c4nc(N5CCN(C(=O)OC(C)(C)C)CC5)sc4C)cc3OC)c(C)o2)cc1 [Example 380, tert-butyl 4-{4-[(E)-2-(3-{[4-({2-[4-(2-ethoxy-2-oxoethyl)phenyl]-5-methyl-1,3-oxazol-4-yl}methoxy)-3-methoxybenzyl]oxy}-1-phenyl-1H-pyrazol-4-yl)ethenyl]-5-methyl-1,3-thiazol-2-yl}piperazine-1-carboxylate]"
7,131 to 132,"CCOC(=O)Cc1ccc(-c2nc(COc3ccc(COc4nn(-c5ccccc5)cc4/C=C/c4nc(N5CCCCC5)sc4C)cc3OC)c(C)o2)cc1 [Example 382, ethyl [4-{4-[(2-methoxy-4-{[(4-{(E)-2-[5-methyl-2-(piperidin-1-yl)-1,3-thiazol-4-yl]ethenyl}-1-phenyl-1H-pyrazol-3-yl)oxy]methyl}phenoxy)methyl]-5-methyl-1,3-oxazol-2-yl}phenyl]acetate]"
8,146 to 148,"COc1cc(COc2nn(-c3ccccc3)cc2/C=C/c2nc(N3CCCCC3)sc2C)ccc1OCc1nc(-c2ccc(CC(=O)O)cc2)oc1C [Example 383, [4-{4-[(2-methoxy-4-{[(4-{(E)-2-[5-methyl-2-(piperidin-1-yl)-1,3-thiazol-4-yl]ethenyl}-1-phenyl-1H-pyrazol-3-yl)oxy]methyl}phenoxy)methyl]-5-methyl-1,3-oxazol-2-yl}phenyl]acetic acid]"
9,171 to 173,"COc1cc(COc2nn(-c3ccccc3)cc2/C=C/c2nc(N3CCOCC3)sc2C)ccc1OCc1nc(-c2ccc(CC(=O)O)cc2)oc1C [Example 385, [4-(4-{[2-methoxy-4-({[4-{(E)-2-[5-methyl-2-(morpholin-4-yl)-1,3-thiazol-4-yl]ethenyl}-1-phenyl-1H-pyrazol-3-yl]oxy}methyl)phenoxy]methyl)-5-methyl-1,3-oxazol-2-yl}phenyl]acetic acid]"
